The values below come from patent US20090093011A1, “Biosensors for ligand-directed functional selectivity” (priority 2007, published 2009).

Experiment [1] concerns the target T1, β2AR (Homo sapiens, UniProt P07550). The experiment is described as follows: Catechol co-stimulation of β2AR ligand-induced DMR signals in A431 cells. Format: cell-based. Set-up: A431 cells endogenously express large numbers of the β2AR; endogenous in cells; host or cells: A431 (human epidermoid carcinoma), quiescent. The settings on record: catechol of 500 μM; pindolol of 10 nM, epinephrine of 100 nM. An excerpt: The ability of catechol to modulate the DMR signals induced by other ligands was examined. […] In embodiments the signaling of 600 or 610 can be completely separated, or can partially overlap.

For a further experiment, the system named is dynamin. As to conditions: 2 nM epinephrine after pretreatment with 25 μM DIPC. An excerpt:
Although not bound by theory, a receptor internalization process is believed to result in a loss in local mass density or distribution within the sensing volume of the biosensor, leading to a negative contribution to the overall response. Since dynamin is known to play an important role in the ligand-induced β2AR internalization, we examined the effect of inhibiting dynamin activity on the ligand responses.

The target of experiment [2] is T1, β2AR. The experiment is described as follows: Ligand-induced DMR signal, RWG biosensor, quiescent A431 cells. It counts as cell-based. On the set-up: A431 cells endogenously express large numbers of the β2AR; endogenous in cells; host or cells: A431 (human epidermoid carcinoma), quiescent. As to conditions: for t1/2 of single-phase exponential decay of EC50 with assay time: EC50 as a function of assay time (FIG. 3c); for t1/2: P-DMR event, single phase exponential association fit; for N-DMR (pm): amplitude of N-DMR event; for P-DMR (pm): amplitude of P-DMR event; for type of DMR signal induced by the ligand alone: saturating concentration, quiescent A431 cells; for transition time (τ in seconds): time for the P-DMR event to occur; for t1/2 of the P-DMR event: one-phase exponential association; for EC50: DMR response at assay time of 50 min. As for the experimental part: Cell culture—Human epidermoid carcinoma A431 cells (American Type Cell Culture) were grown in Dulbecco's modified Eagle's medium (DMEM) supplemented with 10% fetal bovine serum (FBS), 4.5 g/liter glucose, 2 mM glutamine, and antibiotics. About 1.8×10^4 cells at passage 3 to 8 suspended in 50 μL the DMEM medium containing 10% FBS were placed in each well of a 384-well microplate, and were cultured at 37° C. under air/5% CO2 for about 1 day, followed by about 20 hr starvation through continuously culturing in the serum-free DMEM.
Optical biosensor system and cell assays—A Corning® Epic® wavelength interrogation system with an on-board liquid handling system was used. The system is standalone and consists of a temperature-control unit, an optical detection unit, and an on-board liquid handling unit with robotics. The temperature-control unit minimizes temperature fluctuations, if any. Inside this unit, there are two side-by-side stacks for holding both the sensor microplates and compound source plates. Once stable temperature is reached (typically within 1 hr), a sensor microplate is transferred by the robotics into the plate holder right above the detection system, while a source plate is moved to an appropriate compartment so that it is readily addressable by the on-board liquid handling unit.
The detection unit has integrated fiber optics to measure the wavelength shift of the resonant lights due to ligand-induced dynamic mass redistribution in living cells. A broadband white light source centered on 830 nm, generated through a fiber optic and a collimating lens at nominally normal incidence through the bottom of the microplate, is used to illuminate a small region of the grating surface. A detection fiber for recording the reflected light is bundled with the illumination fiber. A series of illumination/detection heads are arranged in a linear fashion, so that reflection spectra are collected from the 16-wells within the same column of a 384 well microplate at once.
(§1) For kinetic assays, the cells were washed with HBSS (Hanks Balanced Salt Solution with 20 mM HEPES) buffer. After 1 hour incubation within the detection system, the sensor plate was scanned and a baseline response was recorded. Then, compound solutions were transferred into the sensor plate using the on-board liquid handling system, and the cell responses were then recorded for another period of time. The lid of the sensor microplates was on throughout the assay, except of a short period of time (about 1 min.) when the compounds were introduced. The plate lid was handled automatically by the robotics. All studies were carried out at controlled temperature (28° C.).
Statistical analysis—Unless specifically mentioned, three replicates were carried out for each measurement or each compound. The standard deviation was derived from these measurements (n=3). […] All dose-dependent responses were analyzed using non-linear regression method with Prism software (available from Graph Pad).
Ligand-specific DMR signals—β2AR in A431 cells were selected as a model system for assaying ligand-directed functional selectivity, because of well-established signaling pathways of the β2AR in A431 as well as the availability of a rich source of structurally similar ligands having wide spectrum of efficacies. A431 cells endogenously express large numbers of the β2AR (about 34,000 copies per cells). To examine the functional selectivity of β2AR ligands, we used RWG biosensor to follow change in local mass density or distribution as a function of time upon stimulation with a saturating concentration of a ligand. The RWG biosensor detects an integrated response, termed as dynamic mass redistribution (DMR) signal, mediated through ligand-induced activation of the β2AR. The DMR signal approximates a global representation of the receptor activation and signaling, particularly for signaling events associated with dynamic relocation of cellular matters at or near the sensor surface.

Experiment [3] addresses T1, β2AR. The settings on record: βARK- and PKA-mediated phosphorylation; cited from earlier work.
Experiment [4] has as its target T1, β2AR. As to conditions: dopamine of <100 μM; antagonist 1 μM. How it is done: as §1
Experiment [5] addresses T1, β2AR. The settings on record: binding affinity reference value from literature sources; cited from earlier work.

Structures are written as SMILES. “Also recorded” adds a separate entry of the source. Like-named read-outs stand apart in the source and are kept apart here.

T1 sequence (P07550 whole entry): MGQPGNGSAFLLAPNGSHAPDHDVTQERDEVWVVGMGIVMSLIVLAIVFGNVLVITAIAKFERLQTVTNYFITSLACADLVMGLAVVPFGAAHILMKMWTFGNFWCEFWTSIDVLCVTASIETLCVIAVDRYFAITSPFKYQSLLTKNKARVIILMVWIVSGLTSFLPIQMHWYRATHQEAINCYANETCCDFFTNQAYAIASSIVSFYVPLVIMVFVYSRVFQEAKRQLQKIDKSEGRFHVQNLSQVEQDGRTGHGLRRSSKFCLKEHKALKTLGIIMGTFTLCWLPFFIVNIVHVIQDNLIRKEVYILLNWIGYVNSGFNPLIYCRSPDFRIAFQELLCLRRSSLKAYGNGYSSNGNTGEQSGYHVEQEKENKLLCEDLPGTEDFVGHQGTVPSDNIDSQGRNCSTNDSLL

In the case of `CNC[C@H](O)c1ccc(O)c(O)c1` [epinephrine], the “DMR signal on co-stimulation with catechol compared with individual signals” value on β2AR [1] is reported as “almost identical to that induced by 100 nM epinephrine alone”. Moreover, in the experiment with dynamin, the “t1/2 for the P-DMR event” value is recorded as “about 200 seconds” and the “transition time (τ)” value is “about 120 sec”. At β2AR [2], the “transition time (τ)” value is reported as “about 140 sec”, the “t1/2 of single-phase exponential decay of EC50 with assay time” value was “about 203 sec”, the “t1/2” value was 8.68 ± 0.417 min and the “N-DMR (pm)” value is reported as 37 ± 7 pm. On β2AR [2], the “P-DMR (pm)” value was determined as 232 ± 12 pm, the “type of DMR signal induced by the ligand alone” value (shortened to “type of DMR signal induced”) was “biphasic response” and the “transition time (τ in seconds)” value worked out at 132 ± 20 s. Besides, on β2AR [2] (epinephrine response, FIG. 1), the “duration of initial N-DMR” value is listed as “about 130 sec” and the “duration of subsequent P-DMR” value is recorded as greater than 10 min. Moreover, on β2AR [2] (n=16), the “maximal amplitude of the P-DMR event, normalized to the epinephrine response” value came out at 100%. Also, at β2AR [3], the “kobs of receptor phosphorylation” value is “about 20 sec”.

Turning to `NCCc1ccccc1` [phenylethylamine], the “type of DMR signal induced” value at β2AR [2] is on record as “complicated DMR signal”.

As to `NCCc1ccc(O)cc1` [tyramine], on β2AR [2], the “type of DMR signal induced” value is on record as “complicated DMR signal”.

Turning to `O=C(CCCN1CCC2(CC1)C(=O)NCN2c1ccccc1)c1ccc(F)cc1` [spiperone], on β2AR [4], the “inhibition of the dopamine response” value is reported as “neither 1 μM SCH 23390 nor 1 μM spiperone”.

In the case of `CC(C)NCC(O)COc1cccc2[nH]ccc12` (centres unmarked) [pindolol], the “DMR signal on co-stimulation with catechol compared with individual signals” value on β2AR [1] is recorded as “closely resembled, but was not identical to, the sum of the two DMR signals; also recorded: close to the sum of the two DMR signals obtained individually”. Besides, on β2AR [2], the “t1/2” value is 8.6 ± 0.783 min; the “N-DMR (pm)” value came to 0 ± 4 pm; the “P-DMR (pm)” value was found to be 142 ± 19 pm; the “type of DMR signal induced” value is “initial steady phase (termed as net-zero DMR) with a short duration, and a succeeding P-DMR”. In addition, the “transition time (τ in seconds)” value at β2AR [2] is 250 ± 15 s. Also, the “maximal amplitude of the P-DMR event, normalized to the epinephrine response” value at β2AR [2] (n=16) came out at 61%.

For the molecule `NCCc1ccc(O)c(O)c1` [dopamine], on β2AR [2], the “t1/2” value amounted to 8 ± 0.383 min, the “N-DMR (pm)” value is 31 ± 4 pm, the “P-DMR (pm)” value came to 214 ± 32 pm and the “t1/2 of the P-DMR event” value was “about 480 s”. Moreover, on β2AR [2], the “type of DMR signal induced” value is “biphasic response” and the “transition time (τ in seconds)” value came out at 252 ± 15 s.

The EC50 is the concentration giving half of the maximal effect. For the molecule `Oc1ccccc1O` [catechol], on β2AR [2], the “transition time (τ)” value is given as “about 140 sec”, the EC50 is 501 µM, the “t1/2” value was found to be 4.82 ± 0.7 min and the “N-DMR (pm)” value is given as 0 ± 3 pm. In addition, on β2AR [2], the “P-DMR (pm)” value is recorded as 152 ± 13 pm; the “t1/2 of the P-DMR event” value is on record as “about 289 s”; the “type of DMR signal induced” value was “initial steady phase (termed as net-zero DMR) with a short duration, and a succeeding P-DMR”; the “transition time (τ in seconds)” value was found to be 130 ± 15 s. At β2AR [2] (n=16), the “maximal amplitude of the P-DMR event, normalized to the epinephrine response” value came to 66%. For the same molecule, the “−logKi (ref.)” value on β2AR [5] is recorded as 3.80(3).

On to `O=C(NCCNCC(O)COc1ccc(O)cc1)N1CCOCC1` (centres unmarked) [xamoterol], for which, at β2AR [2], the “t1/2” value is 16.2 ± 2.5 min, the “N-DMR (pm)” value came to 0 ± 5 pm, the “P-DMR (pm)” value is on record as 75 ± 18 pm and the “t1/2 of the P-DMR event” value was “about 974 s”. In addition, on β2AR [2], the “type of DMR signal induced” value was “initial steady phase (termed as net-zero DMR) with a short duration, and a succeeding P-DMR”; the “transition time (τ in seconds)” value was 260 ± 26 s.

Take `NC[C@H](O)c1ccc(O)c(O)c1` [norepinephrine]: at β2AR [2], the “t1/2 of single-phase exponential decay of EC50 with assay time” value is recorded as “about 248 sec”, the “t1/2” value is 9.32 ± 0.25 min, the “N-DMR (pm)” value was determined as 29 ± 5 pm and the “P-DMR (pm)” value is on record as 209 ± 16 pm. On β2AR [2], the “type of DMR signal induced” value is “biphasic response” and the “transition time (τ in seconds)” value was determined as 180 ± 17 s. In addition, the “maximal amplitude of the P-DMR event, normalized to the epinephrine response” value at β2AR [2] (n=16) is on record as 91%.

For the molecule `CNCC(O)c1ccccc1` (centres unmarked) [halostachine], at β2AR [2], the “maximal amplitude of the P-DMR event, normalized to the epinephrine response” value came out at 90% and the EC50 is 23.4 µM. The “−logKi (ref.)” value at β2AR [5] is 5.08(3).
